Reference: US6673749B1, “Use of phyllocladane diterpenoids for plant growth promotion and alleviation of growth retardant allelochemicals, and method therefor” (Council of Scientific and Industrial Research, priority 2002, dated 2004)

Columns and labels:
Assay type in all cases: in vivo
Sesbania cannabina [1] = assay: Seed germination and seedling growth, comparison with GA3 (Example 4)
Protocol: (§1) 100 ml stalk solutions of 0.1 μM concentration were prepared by dissolving required amounts of various test compounds (depending upon their molecular weights) in minimum amount of ethanol or acetone and adding distilled water. From this stalk solution, 0.01 μM and 0.001 μM concentrations were prepared. Calliterpenone and calliterpenone di acetate was dissolved in 2.0 ml absolute ethanol (Merc), while; calliterpenone monoacetate, isopropylideno calliterpenone and trihydroxy calliterpenone were dissolved in 2.0 ml spectral grade acetone (Ranbaxy). The respective control test solutions of distilled water of each concentration also contained equal amount of absolute ethanol or acetone. For an assay, 10 seeds were placed on Whatman filter paper (moistened with 5.0 ml of test solution in a 9.0 cm diameter petridish (in triplicate). The pteridishes were incubated for 9 days in a germinator, maintained at 25.0±1.0° C. with 90% humidity and 4 hr light/day. At the end of incubation, observations were recorded on the seedlings in terms of germination, shoot and root growth. The data on the length of shoot and root of seedlings and number of seeds germinated in different concentrations of compounds were compared with the control, which was taken as 100%. The data thus obtained were presented in Table-1.
(§2) Effect of calliterpenone and its derivatives on seed germination and seedling growth in Hibiscus sabdariffa and Sesbania cannabina were measured in the similar way as these were measured in Example-1.

Hibiscus sabdariffa [2] = assay: as above
Protocol: as §1, §2

Sesbania cannabina [3] = assay: Antagonistic effect with Artemisia annua seed extract on germination and seedling growth; settings: A. annua seed extract (0.65 g seeds/100 ml) alone or mixed 1:1 with 0.01 μm compound, control = 100%
Protocol: (§3) On the other hand, it is evident from Exp. 1-4 that phyllocladane diterpenenoids have produced germination and growth promoting activities on various plant species. To find out the combined effect of A. annua extract and phyllocladane diterpenoides on the germination and seedling growth of different plant species, 1:1 ratio of these compounds and A.annua extract were tested in the present experiment. For this, Hibiscus sabdariffa and Sesbania cannabina seeds were germinated in A.annua seed extract and solutions prepared by mixing this extract with 0.01 μm calliterpenone and calliterpenone mono-acetate respectively (Table 7). For the preparation of A.annua extract, 1.3 g seeds were soaked in 100 ml of distilled water for 24 hrs for testing on H. sabdariffa. Since, at this concentration, seeds of this species have shown 69% mortality which may be taken as good indicator. This effect was also recorded in S.cannabina. Since, in this case, seeds were almost half in weight as compared to the seeds of H. sabdariffa, accordingly, 0.65 g A. annua seeds were soaked in 100 ml of distilled water for 24 hrs to produce identical constraints in S. cannabina. For control, seeds were germinated in distilled water and all the observations were compared with it. […] Therefore, calliterpenone and its derivatives can be used to nullify the effects of other growth retardants/allelochemicals in the fields for their reclamation.

Hibiscus sabdariffa [4] = assay: as above; settings: A. annua seed extract (1.3 g seeds/100 ml) alone or mixed 1:1 with 0.01 μm compound, control = 100%
Protocol: as §3

**Q.** With `CC1(C)C(=O)CC[C@@]2(C)[C@H]1CC[C@@]13C[C@H](CC[C@@H]12)[C@@](O)(CO)C3` [Calliterpenone, 16α, 17 dihydroxy phyllocladan-3 one] as the compound, how does the “Root growth as compared to GA3 taken as 100%” value (Sesbania cannabina [1]; 0.001 μM, 9th day) read?
**A.** 109%

**Q.** And the “Shoot growth 9th Day” value (Sesbania cannabina [1]; 0.001 μM, 9th day)?
**A.** 108.2

**Q.** And the “Seed Ger.” value (Sesbania cannabina [1]; 0.01 μM)?
**A.** 3

**Q.** And the “Root Growth (mm) 3rd Day” value (Sesbania cannabina [1]; 0.01 μM)?
**A.** 14.5 mm

**Q.** What about the “Shoot growth 3rd Day” value (Sesbania cannabina [1]; 0.01 μM) of the same compound?
**A.** 14.2

**Q.** And the “Root Growth (mm) 6th Day” value (Sesbania cannabina [1]; 0.01 μM)?
**A.** 21.0 mm

**Q.** What about the “Shoot growth 6th Day” value (Sesbania cannabina [1]; 0.01 μM) of the same compound?
**A.** 48.8

**Q.** And the “Root Growth (mm) 9th Day” value (Sesbania cannabina [1]; 0.01 μM, 9th day)?
**A.** 34.8 mm

**Q.** What about the “Shoot growth 9th Day” value (Sesbania cannabina [1]; 0.01 μM, 9th day) of the same compound?
**A.** 67.3

**Q.** What about the “Seed Ger.” value (Sesbania cannabina [1]; 0.1 μM) of the same compound?
**A.** 4

**Q.** And the “Root Growth (mm) 3rd Day” value (Sesbania cannabina [1]; 0.1 μM)?
**A.** 7.3 mm

**Q.** And the “Shoot growth 3rd Day” value (Sesbania cannabina [1]; 0.1 μM)?
**A.** 10.3

**Q.** What about the “Root Growth (mm) 6th Day” value (Sesbania cannabina [1]; 0.1 μM) of the same compound?
**A.** 16.0 mm

**Q.** And the “Shoot growth 6th Day” value (Sesbania cannabina [1]; 0.1 μM)?
**A.** 39.3

**Q.** And the “Root Growth (mm) 9th Day” value (Sesbania cannabina [1]; 0.1 μM, 9th day)?
**A.** 24.8 mm

**Q.** What about the “Shoot growth 9th Day” value (Sesbania cannabina [1]; 0.1 μM, 9th day) of the same compound?
**A.** 61.5

**Q.** What about the “Germination as compared to respective control” value (Hibiscus sabdariffa [2]; 0.001 μM) of the same compound?
**A.** 133%

**Q.** And the “Germination compared with GA3” value (Hibiscus sabdariffa [2]; 0.001 μM)?
**A.** 133%

**Q.** And the “Root growth as compared to respective control” value (Hibiscus sabdariffa [2]; 0.001 μM)?
**A.** 157%

**Q.** And the “Seed Ger.” value (Hibiscus sabdariffa [2]; 0.001 μM)?
**A.** 4

**Q.** What about the “Shoot growth as compared to GA3 (100%)” value (Hibiscus sabdariffa [2]; 0.001 μM) of the same compound?
**A.** 110%

**Q.** And the “Shoot growth as compared to respective control” value (Hibiscus sabdariffa [2]; 0.001 μM)?
**A.** 182%

**Q.** What about the “Root Growth (mm) 3rd Day” value (Hibiscus sabdariffa [2]; 0.001 μM) of the same compound?
**A.** 12.6 mm

**Q.** And the “Shoot growth 3rd Day” value (Hibiscus sabdariffa [2]; 0.001 μM)?
**A.** 27.1

**Q.** And the “Root Growth (mm) 6th Day” value (Hibiscus sabdariffa [2]; 0.001 μM)?
**A.** 28.6 mm

**Q.** And the “Shoot growth 6th Day” value (Hibiscus sabdariffa [2]; 0.001 μM)?
**A.** 61.0

**Q.** And the “Root Growth (mm) 9th Day” value (Hibiscus sabdariffa [2]; 0.001 μM, 9th day)?
**A.** 33.4 mm

**Q.** What about the “Root growth as compared to GA3 taken as 100%” value (Hibiscus sabdariffa [2]; 0.001 μM, 9th day) of the same compound?
**A.** 134%

**Q.** And the “Shoot growth 9th Day” value (Hibiscus sabdariffa [2]; 0.001 μM, 9th day)?
**A.** 94.6

**Q.** What about the “Seed Ger.” value (Hibiscus sabdariffa [2]; 0.01 μM) of the same compound?
**A.** 2

**Q.** What about the “Root Growth (mm) 3rd Day” value (Hibiscus sabdariffa [2]; 0.01 μM) of the same compound?
**A.** 17.0 mm

**Q.** And the “Shoot growth 3rd Day” value (Hibiscus sabdariffa [2]; 0.01 μM)?
**A.** 39.8

**Q.** And the “Root Growth (mm) 6th Day” value (Hibiscus sabdariffa [2]; 0.01 μM)?
**A.** 19.2 mm

**Q.** What about the “Shoot growth 6th Day” value (Hibiscus sabdariffa [2]; 0.01 μM) of the same compound?
**A.** 78.0

**Q.** What about the “Root Growth (mm) 9th Day” value (Hibiscus sabdariffa [2]; 0.01 μM, 9th day) of the same compound?
**A.** 25.8 mm

**Q.** What about the “Shoot growth 9th Day” value (Hibiscus sabdariffa [2]; 0.01 μM, 9th day) of the same compound?
**A.** 85.0

**Q.** What about the “Seed Ger.” value (Hibiscus sabdariffa [2]; 0.1 μM) of the same compound?
**A.** 2

**Q.** What about the “Root Growth (mm) 3rd Day” value (Hibiscus sabdariffa [2]; 0.1 μM) of the same compound?
**A.** 14.0 mm

**Q.** What about the “Shoot growth 3rd Day” value (Hibiscus sabdariffa [2]; 0.1 μM) of the same compound?
**A.** 13.6

**Q.** What about the “Root Growth (mm) 6th Day” value (Hibiscus sabdariffa [2]; 0.1 μM) of the same compound?
**A.** 21.5 mm

**Q.** What about the “Shoot growth 6th Day” value (Hibiscus sabdariffa [2]; 0.1 μM) of the same compound?
**A.** 52.5

**Q.** And the “Root Growth (mm) 9th Day” value (Hibiscus sabdariffa [2]; 0.1 μM, 9th day)?
**A.** 23.0 mm

**Q.** And the “Shoot growth 9th Day” value (Hibiscus sabdariffa [2]; 0.1 μM, 9th day)?
**A.** 72.5

**Q.** And the “Percent (%) germination in relation to control on the 9th day after sowing” value (Sesbania cannabina [3])?
**A.** no improvement in seed germination

**Q.** What about the “Percent (%) seedling growth, Root, in relation to control on the 9th day after sowing” value (Sesbania cannabina [3]) of the same compound?
**A.** 225%

**Q.** And the “Percent (%) seedling growth, Stem, in relation to control on the 9th day after sowing” value (Sesbania cannabina [3])?
**A.** 144%

**Q.** And the “Percent (%) germination in relation to control on the 9th day after sowing” value (Hibiscus sabdariffa [4])?
**A.** nullified the germination retarding effect

**Q.** And the “Percent (%) seedling growth, Root, in relation to control on the 9th day after sowing” value (Hibiscus sabdariffa [4])?
**A.** 150%

**Q.** And the “Percent (%) seedling growth, Stem, in relation to control on the 9th day after sowing” value (Hibiscus sabdariffa [4])?
**A.** 130%
